Literature values as cited in patent US20260275282A1, “CELLS BEING HIGHLY ENRICHED IN SASP FACTORS, AND COMPOSITION COMPRISING SAID CELLS” (EVOMEDIS GMBH, priority 2022, published 2026).
Peptide text beside a SMILES is read from it.

Tested on: protein secretion (SASP factor secretion)
Conditions: 1 mM extracellular Ca2 - calcium dependent

| Compound | Concentration |
| --- | --- |
| CCCC[C@@H](C=O)NC(=O)[C@H](CC(C)C)NC(=O)OCc1ccccc1 [Calpeptin] | 80 μM (1 mM |

Same assay, conditions: + 2-5 nM Vinblastine; actin depolymerizer with microtubule targeting-agent

| Compound | Concentration in combination with Vinblastine |
| --- | --- |
| Methyl-β-cyclodextrin | 1 mM + 2-5 nM |

Same assay, conditions: concentration range that results in significant reduction, preferably inhibition, of SASP factor secretion

| Compound | Concentration |
| --- | --- |
| CC(NCCC(c1ccccc1)c1ccccc1)c1ccccc1 (centres unmarked) [Fendiline] | 1 to 100 µM |
| Oc1ccc(C=Cc2cc(O)cc(O)c2)cc1 [Resveratrol] | 12.5 to 50 µM |
| CC(Oc1ccc(O)cc1)(P(=O)(O)O)P(=O)(O)O [L-690,330] | 100 µM |
| CCCC[C@@H](C)/C=C(C)/C=C(\C)C(=O)NC1=C[C@@](O)(/C=C/C=C/C=C/C(=O)NC2=C(O)CCC2=O)[C@@H]2O[C@@H]2C1=O [Manumycin A] | 1 µM |
| C1CCC(C(CC2CCCCN2)C2CCCCC2)CC1 (centres unmarked) [Perhexiline] | 10 µM |
| C[C@@H](N)[C@H]1CC[C@H](C(=O)Nc2ccncc2)CC1 [Y27632] | 5 µM |
| C[C@@H]1CN2CCC[C@H]3CCCCCC[C@H]4CCN5CCC[C@@](O)(CCCCCC[C@@H]1O[C@H]32)[C@H]5O4 [Xestospongin B] | 0.08 to 10 µM |
| CNC(=O)c1cc(Oc2ccc(NC(=O)Nc3ccc(Cl)c(C(F)(F)F)c3)cc2)ccn1 [Sorafenib] | 5 to 10 µM |
| O=C(CCCN1CCC2(CC1)C(=O)NCN2c1ccccc1)c1ccc(F)cc1 [Spiperone] | 10 to 20 µM |
| CNCCC(Oc1ccc(C(F)(F)F)cc1)c1ccccc1 (centres unmarked) [Fluoxetine] | 30 to 100 µM |
| Cn1cnc(N)c2ncnc1-2 [3-Methyladenine] | 5000 µM |
| CC(=O)N[C@@H](CC(C)C)C(=O)N[C@@H](CC(C)C)C(=O)N[C@H](C=O)CCCNC(=N)N [Leupeptin] | 0.08 to 0.096 µM |
| O=CC[C@@H](O)[C@H](O)[C@H](O)CO [2-Deoxyglucose] | 50000 µM |
| CCCCc1ccc2[nH]c(NC(=O)OC)nc2c1 [Parbendazole] | 10 µM |
| Cyclclosporine A | 10 to 40 µM |
| CSCC[C@@H](C=O)NC(=O)[C@H](CC(C)C)NC(=O)[C@H](CC(C)C)NC(C)=O [Calpain inhibitor II, N-acetyl-leucyl-leucyl-methioninal] (Ac-Leu-Leu-Met-aldehyde) | 10 µM |
| Fc1ccc([C@@H]2CCNC[C@H]2COc2ccc3c(c2)OCO3)cc1 [Paroxetine] | 10 to 20 µM |
| CN(C)C(=N)N=C(N)N [Metformin] | 5 µM |
| CN[C@H]1CC[C@@H](c2ccc(Cl)c(Cl)c2)c2ccccc21 [Sertraline] | 10 µM |
| NC(=O)N1CCC(CC(=O)N2CCC([C@H]3c4ncc(Br)cc4CCc4cc(Cl)cc(Br)c43)CC2)CC1 [Lonafarnib] | 5 µM |
| CC[C@@]1([C@@H]2O[C@@H]([C@H]3O[C@@](O)(CO)[C@H](C)C[C@@H]3C)C[C@@H]2C)CC[C@H]([C@]2(C)CC[C@]3(C[C@H](O)[C@@H](C)[C@@H]([C@@H](C)[C@@H](OC)[C@H](C)C(=O)O)O3)O2)O1 [Monensin] | 10 µM |
| COc1cc2c(c(OC)c1OC)-c1ccc(OC)c(=O)cc1[C@@H](NC(C)=O)CC2 [Colchicine] | 2 to 5 µM |
| COc1ccc(CCN2CCC(Nc3nc4ccccc4n3Cc3ccc(F)cc3)CC2)cc1 [Astemizole] | 20 to 40 µM |
| CN(C)CCCN1c2ccccc2CCc2ccccc21 [Imipramine] | 1 µM |

Tested on: microtubules assembly
Conditions: half of the maximal concentration necessary to inhibit the microtubules assembly

| IC50 | Compound |
| --- | --- |
| 0.8 nM | CCC1=C[C@@H]2CN(C1)Cc1c([nH]c3ccccc13)[C@@](C(=O)OC)(c1cc3c(cc1OC)N(C)[C@H]1[C@@](O)(C(=O)OC)[C@H](OC(C)=O)[C@]4(CC)C=CCN5CC[C@]31[C@@H]54)C2 [Vinorelbine] |
| 0.8 nM | CC[C@]1(O)C[C@H]2CN(CCc3c([nH]c4ccccc34)[C@@](C(=O)OC)(c3cc4c(cc3OC)N(C=O)[C@H]3[C@@](O)(C(=O)OC)[C@H](OC(C)=O)[C@]5(CC)C=CCN6CC[C@]43[C@@H]65)C2)C1 [Vincristine] |
| 0.8 nM | CC[C@]1(O)C[C@@H]2CN(CCc3c([nH]c4ccccc34)[C@@](C(=O)OC)(c3cc4c(cc3OC)N(C)[C@H]3[C@@](O)(C(=O)OC)[C@H](OC(C)=O)[C@]5(CC)C=CCN6CC[C@]43[C@@H]65)C2)C1 [Vinblastine] |
| 0.8 nM | CC[C@]1(O)C[C@@H]2CN(CCc3c([nH]c4ccccc34)[C@@](C(=O)OC)(c3cc4c(cc3OC)N(C)[C@H]3[C@@](O)(C(N)=O)[C@H](O)[C@]5(CC)C=CCN6CC[C@]43[C@@H]65)C2)C1 [Vindesine] |
| 8 nM | CC(=O)O[C@H]1C(=O)[C@@]2(C)[C@H]([C@H](OC(=O)c3ccccc3)[C@]3(O)C[C@H](OC(=O)[C@H](O)[C@@H](NC(=O)c4ccccc4)c4ccccc4)C(C)=C1C3(C)C)[C@]1(OC(C)=O)CO[C@@H]1C[C@@H]2O [Paclitaxel (Taxol), Paclitaxel] |

| Compound | IC50 |
| --- | --- |
| COC(=O)Nc1nc2ccc(C(=O)c3cccs3)cc2[nH]1 [Nocodazole] | 0.8 nM |
| C/C1=C/C[C@@H](/C(C)=C/c2csc(C)n2)OC(=O)C[C@H](O)C(C)(C)C(=O)[C@H](C)[C@@H](O)[C@@H](C)CCC1 [Desoxyepothilone B] | 13 nM |
| CC[C@]12C=CCN3CC[C@@]4(c5cc([C@@]6(C(=O)OC)C[C@@H]7C[C@@H](C(C)(F)F)CN(Cc8c6[nH]c6ccccc86)C7)c(OC)cc5N(C)[C@H]4[C@@](O)(C(=O)OC)[C@@H]1OC(C)=O)[C@@H]32 [Vinflunine] | 0.8 nM |

Tested on: kinesin
Conditions: Kinesin inhibitors: Group V; read-out: Concentration (IC50)

| Compound | IC50 |
| --- | --- |
| Cc1ccc(C(=O)N(CCCN)[C@@H](c2nc3cc(Cl)ccc3c(=O)n2Cc2ccccc2)C(C)C)cc1 [Ispinesib (SB715992), Ispinesib] | 10000 to 30000 nM |

Tested on: PI3K-mTOR
Conditions: Dual inhibitor of PI3K-mTOR; read-out: Concentration (IC50)

| IC50 | Compound |
| --- | --- |
| 8 to 150 nM | Oc1cccc(-c2nc(N3CCOCC3)c3oc4ncccc4c3n2)c1 [PI-103] |

Tested on: proteasome
Conditions: Inhibitor of proteasome; read-out: Concentration (IC50)

| IC50 | Compound |
| --- | --- |
| […] | CC(C)C[C@H](NC(=O)[C@H](Cc1ccccc1)NC(=O)c1cnccn1)B(O)O [Bortezomib] |

Tested on: autophagy
Conditions: BH3 domain mimetics; read-out: Concentration (IC50)

| IC50 | Compound |
| --- | --- |
| 5000 to 10000 nM | CN(C)CC[C@H](CSc1ccccc1)Nc1ccc(S(=O)(=O)NC(=O)c2ccc(N3CCN(Cc4ccccc4-c4ccc(Cl)cc4)CC3)cc2)cc1[N+](=O)[O-] [ABT-737] |
